Biological target: T1, estrus urinary lipocalin protein (EULP)
T1 construct: gene PMP2; native, purified from female rat urine by Sephadex G-50 gel filtration; printed peptides MSNKFL, KFLGTWKLT, KLTSSENFD, NFDEYMKAL, LGTRSLGNL, LAGPTVIIS, ITIRTESGF, GFKNTEISF, FEETTADNR, RKTKSTVTL, KSTVTLAGG, NGNETTIKR, SVVCTRIYE
Assay: fluorescence binding of 2-naphthol probe
Parameters: species or system Rattus rattus
Settings: 10 mM phosphate buffer pH 7.2, room temperature; fluorescent probe

`Oc1ccc2ccccc2c1` [2-naphthol] gave a Kd of 420 ± 60 nM.
